Measurements published in US7435820B2, “Substituted tetrahydro-1H-pyrazolo [3,4-c]pyridines compositions comprising them, and use” (Aventis Pharma S.A., priority 2003, dated 2008).
Read-outs that look alike come from different tables or passages of the source.

Experiments:
[1] = molecular target: T1, human Tie2 (Homo sapiens, UniProt Q02763); test: Tie2 kinase inhibition: phosphorylation of GST-PLC (SH2-SH3 fragments) by GST-Tie2, 33P-ATP flashplate; assay type: biochemical
T1 construct: human Tie2 corresponding to amino acids 776-1124 of the intracellular domain was generated by PCR; made in house; host or cells: baculovirus expression system (vector pFastBacGT)
Method: The coding sequence of human Tie2 corresponding to amino acids 776-1124 of the intracellular domain was generated by PCR using the cDNA isolated from human placenta as model. This sequence was introduced into a baculovirus expression vector pFastBacGT in the form of a GST fusion protein.
The inhibitory effect of the molecules is determined in an assay for phosphorylation of PLC by Tie2 in the presence of GST-Tie2 purified to approximately 80% homogeneity. The substrate is made up of the SH2-SH3 fragments of PLC, the latter being expressed in the form of a GST fusion protein.
The kinase activity of Tie2 is measured in a 20 mM MOPS buffer, pH 7.2, containing 10 mM MgCl2, 10 mM MnCl2, 1 mM DTT and 10 mM of glycerophosphate. A reaction mixture made up of 70 μl of kinase buffer containing 100 ng of GST-Tie2 enzyme per well is placed in a flashplate 96-well plate kept on ice. 10 μl of the molecule to be tested, diluted in DMSO, at a concentration of at most 10% are then added. For a given concentration, each measurement is carried out in quadruplicate. The reaction is initiated by adding 20 μl of solution containing 2 μg of GST-PLC, 2 μM of cold ATP and 1 μCi of ^33P[ATP]. After incubation for 1 hour at 37° C., the reaction is stopped by adding 1 volume (100 μl) of 200 mM EDTA. After removal of the incubation buffer, the wells are washed three times with 300 μl of PBS. The radioactivity is measured on a Wallac MicroBeta 1450.
The inhibition of the Tie2 activity is calculated and expressed as percentage inhibition with respect to the control activity determined in the absence of compound.

[2] = molecular target: T2, human KDR enzyme (Homo sapiens, UniProt P35968); test: KDR kinase inhibition: phosphorylation of PLCγ SH2-SH3 substrate by KDR enzyme, 33P-ATP scintillation plate; assay type: biochemical
T2 construct: The cytoplasmic domain of the human KDR enzyme was cloned in GST fusion form; GST; made in house; host or cells: SF21 insect cells (baculovirus, pFastBac)
Method: The inhibitory effect of the compounds is determined in an assay for phosphorylation of substrate by the KDR enzyme in vitro using a scintillation technique (96-well plate, NEN).
The cytoplasmic domain of the human KDR enzyme was cloned in GST fusion form into the baculovirus expression vector pFastBac. The protein was expressed in SF21 cells and purified to approximately 60% homogeneity. The KDR kinase activity is measured in 20 mM MOPS, 10 mM MgCl2, 10 mM MnCl2, 1 mM DTT, 2.5 mM EGTA, 10 mM b-glycerophosphate, pH=7.2, in the presence of 10 mM MgCl2, 100 μM Na3VO4 and 1 mM NaF. 10 μl of the compound are added to 70 μl of kinase buffer containing 100 ng of KDR enzyme at 4° C. The reaction is initiated by adding 20 μl of solution containing 2 μg of substrate (SH2-SH3 fragment of PLCγ expressed in the form of an GST fusion protein), 2 μCi γ ^33P[ATP] and 2 μM cold ATP. After incubation for 1 hour at 37° C., the reaction is stopped by adding 1 volume (100 μl) of 200 mM EDTA. The incubation buffer is removed and the wells are washed three times with 300 μl of PBS. The radioactivity is measured in each well using a Top Count NXT (Packard) radioactivity counter.
The background noise is determined by measuring the radioactivity in four different wells containing the radioactive ATP and the substrate alone.
A total activity control is measured in four different wells containing all the reagents (γ^33P-[ATP], KDR and PLC-γ substrate) but in the absence of compound.
The inhibition of the KDR activity with the compound of the invention is expressed as percentage inhibition of the control activity determined in the absence of compound.
The compound SU5614 (Calbiochem) (1 μM) is included in each plate as inhibition control.

T2 sequence (P35968 786-1356 limits assumed): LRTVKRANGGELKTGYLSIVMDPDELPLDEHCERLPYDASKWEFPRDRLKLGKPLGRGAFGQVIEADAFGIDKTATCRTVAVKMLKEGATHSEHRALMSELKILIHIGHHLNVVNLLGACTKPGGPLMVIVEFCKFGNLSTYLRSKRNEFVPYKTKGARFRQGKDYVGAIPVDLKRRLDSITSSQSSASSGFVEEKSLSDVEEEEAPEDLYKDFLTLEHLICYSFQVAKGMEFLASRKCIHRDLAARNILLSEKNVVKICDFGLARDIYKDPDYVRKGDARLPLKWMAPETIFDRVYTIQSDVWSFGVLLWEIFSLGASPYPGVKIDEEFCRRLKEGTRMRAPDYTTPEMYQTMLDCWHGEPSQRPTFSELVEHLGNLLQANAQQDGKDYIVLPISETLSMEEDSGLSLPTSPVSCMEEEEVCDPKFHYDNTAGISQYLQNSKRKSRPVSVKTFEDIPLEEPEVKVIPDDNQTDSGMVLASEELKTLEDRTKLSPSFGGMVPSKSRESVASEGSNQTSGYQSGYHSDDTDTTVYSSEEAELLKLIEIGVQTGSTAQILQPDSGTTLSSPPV
T1 sequence (Q02763 776-1124): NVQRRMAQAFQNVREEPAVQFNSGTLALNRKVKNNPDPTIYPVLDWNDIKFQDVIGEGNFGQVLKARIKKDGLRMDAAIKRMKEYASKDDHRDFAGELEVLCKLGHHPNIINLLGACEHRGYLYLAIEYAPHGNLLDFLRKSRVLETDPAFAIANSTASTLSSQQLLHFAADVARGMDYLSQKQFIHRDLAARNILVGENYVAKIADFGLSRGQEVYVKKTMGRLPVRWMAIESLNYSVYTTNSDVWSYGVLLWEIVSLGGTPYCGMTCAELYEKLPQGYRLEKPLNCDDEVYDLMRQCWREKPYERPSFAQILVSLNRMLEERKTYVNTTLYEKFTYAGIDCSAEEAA

SMILES: Clc1cccc(CN2CCc3c(n[nH]c3-c3nc4ccccc4[nH]3)C2)c1 [Chemistry 70]
- inhibition at 10 µM ([1]; read-out: Tie2 % Inhib. 10 μM): 65.5%
- inhibition at 10 µM ([2]; read-out: KDR % Inhib. 10 μM): 92.1%

SMILES: Cc1cc2nc(-c3[nH]nc4c3CCN(C(=O)c3ccccc3Nc3ccccc3)C4)[nH]c2cc1C [Example P-31378-112-1]
- inhibition at 10 µM ([1]; Assay 1, read-out: Tie2 % Inhib at 10 μM (FRX) Assay 1): 83.1%
- inhibition at 10 µM ([1]; Assay 2, read-out: Tie2 % Inhib at 10 μM (FRX) Assay 2): 88.1%
- inhibition at 10 µM ([2]; Assay 1, read-out: KDR % Inhib at 10 μM Assay 1): 96.5%
- inhibition at 10 µM ([2]; Assay 2, read-out: KDR % Inhib at 10 μM Assay 2): 96.7%

SMILES: CCCS(=O)(=O)N1CCc2c(n[nH]c2-c2nc3cc(C)c(C)cc3[nH]2)C1 [Chemistry 29]
- inhibition at 10 µM ([1]; read-out: Tie2 % Inhib. 10 μM): 47.5%
- inhibition at 10 µM ([2]; read-out: KDR % Inhib. 10 μM): 13.3%

SMILES: Cc1cc2nc(-c3[nH]nc4c3CCN(S(=O)(=O)c3cccc(Cl)c3Cl)C4)[nH]c2cc1C [Chemistry 25]
- inhibition at 10 µM ([1]; read-out: Tie2 % Inhib. 10 μM): 89.1%
- inhibition at 10 µM ([2]; read-out: KDR % Inhib. 10 μM): 31.9%
